Assay results: the NIST ThermoML archive (doi:10.1016/j.fluid.2005.06.010)
Numbers after ± are expanded uncertainties.

Assay: xn = mol fraction of the nth substance listed
Conditions: Fluid (supercritical or subcritical phases), Vibrating tube method

c1ccc2ccccc2c1 [naphthalene] + O=C=O
mass density (318.03 K, 16010 kPa, x1 = 0.0198): 802.31 ± 0.63 kg/m3
mass density (318.03 K, 16995 kPa, x1 = 0.0198): 813.73 ± 0.6 kg/m3
mass density (318.03 K, 17979 kPa, x1 = 0.0198): 824.06 ± 0.58 kg/m3
mass density (318.03 K, 18989 kPa, x1 = 0.0198): 833.74 ± 0.57 kg/m3
mass density (318.03 K, 20016 kPa, x1 = 0.0198): 842.78 ± 0.56 kg/m3
mass density (318.03 K, 20955 kPa, x1 = 0.0198): 850.43 ± 0.54 kg/m3
mass density (318.03 K, 21951 kPa, x1 = 0.0198): 858.04 ± 0.53 kg/m3
mass density (318.03 K, 22703 kPa, x1 = 0.0198): 863.41 ± 0.54 kg/m3
mass density (318.07 K, 18008 kPa, x1 = 0.0235): 829.61 ± 0.58 kg/m3
mass density (318.07 K, 18511 kPa, x1 = 0.0235): 834.41 ± 0.57 kg/m3
mass density (318.07 K, 19022 kPa, x1 = 0.0235): 839.2 ± 0.56 kg/m3
mass density (318.07 K, 19528 kPa, x1 = 0.0235): 843.76 ± 0.56 kg/m3
mass density (318.07 K, 20035 kPa, x1 = 0.0235): 848.15 ± 0.55 kg/m3
mass density (318.07 K, 20519 kPa, x1 = 0.0235): 852.18 ± 0.55 kg/m3
mass density (318.07 K, 21009 kPa, x1 = 0.0235): 856.16 ± 0.55 kg/m3
mass density (318.07 K, 22034 kPa, x1 = 0.0235): 864 ± 0.54 kg/m3
mass density (318.07 K, 23008 kPa, x1 = 0.0235): 870.96 ± 0.53 kg/m3
mass density (318.07 K, 23971 kPa, x1 = 0.0235): 877.49 ± 0.52 kg/m3
mass density (318.07 K, 24665 kPa, x1 = 0.0235): 882.02 ± 0.52 kg/m3
mass density (318.08 K, 12165 kPa, x1 = 0.0144): 719.15 ± 1 kg/m3
mass density (318.08 K, 12357 kPa, x1 = 0.0144): 724.21 ± 0.92 kg/m3
mass density (318.08 K, 12493 kPa, x1 = 0.0144): 727.5 ± 0.86 kg/m3
mass density (318.08 K, 13016 kPa, x1 = 0.0144): 739.71 ± 0.79 kg/m3
mass density (318.08 K, 13476 kPa, x1 = 0.0144): 749.33 ± 0.76 kg/m3
mass density (318.08 K, 14019 kPa, x1 = 0.0144): 759.61 ± 0.71 kg/m3
mass density (318.08 K, 14983 kPa, x1 = 0.0144): 775.77 ± 0.67 kg/m3
mass density (318.08 K, 14983 kPa, x1 = 0.0173): 784.34 ± 0.66 kg/m3
mass density (318.08 K, 15997 kPa, x1 = 0.0144): 790.28 ± 0.63 kg/m3
mass density (318.08 K, 16066 kPa, x1 = 0.0173): 799.24 ± 0.63 kg/m3
mass density (318.08 K, 16997 kPa, x1 = 0.0144): 803.04 ± 0.61 kg/m3
mass density (318.08 K, 16997 kPa, x1 = 0.0173): 810.5 ± 0.61 kg/m3
mass density (318.08 K, 17981 kPa, x1 = 0.0144): 814.33 ± 0.59 kg/m3
mass density (318.08 K, 18010 kPa, x1 = 0.0173): 821.53 ± 0.59 kg/m3
mass density (318.08 K, 18981 kPa, x1 = 0.0144): 824.7 ± 0.57 kg/m3
mass density (318.08 K, 19014 kPa, x1 = 0.0173): 831.51 ± 0.57 kg/m3
mass density (318.08 K, 20037 kPa, x1 = 0.0173): 840.84 ± 0.56 kg/m3
mass density (318.08 K, 20042 kPa, x1 = 0.0144): 834.82 ± 0.56 kg/m3
mass density (318.08 K, 20902 kPa, x1 = 0.0144): 842.42 ± 0.55 kg/m3
mass density (318.08 K, 20967 kPa, x1 = 0.0173): 848.79 ± 0.55 kg/m3
mass density (318.08 K, 21935 kPa, x1 = 0.0144): 850.92 ± 0.54 kg/m3
mass density (318.08 K, 22018 kPa, x1 = 0.0173): 857.06 ± 0.54 kg/m3
mass density (318.08 K, 22960 kPa, x1 = 0.0144): 858.89 ± 0.53 kg/m3
mass density (318.08 K, 22995 kPa, x1 = 0.0173): 864.32 ± 0.53 kg/m3
mass density (318.08 K, 23932 kPa, x1 = 0.0144): 865.94 ± 0.52 kg/m3
mass density (318.08 K, 23962 kPa, x1 = 0.0173): 871.14 ± 0.52 kg/m3
mass density (318.08 K, 24764 kPa, x1 = 0.0173): 876.56 ± 0.52 kg/m3
mass density (318.08 K, 24829 kPa, x1 = 0.0144): 872.11 ± 0.52 kg/m3
mass density (318.11 K, 9524 kPa, x1 = 0.0065): 513.41 ± 2.1 kg/m3
mass density (318.11 K, 9601 kPa, x1 = 0.0049): 505.2 ± 3.1 kg/m3
mass density (318.11 K, 9622 kPa, x1 = 0.0065): 527.97 ± 3.1 kg/m3
mass density (318.11 K, 9697 kPa, x1 = 0.0049): 521.21 ± 3.1 kg/m3
mass density (318.11 K, 9722 kPa, x1 = 0.0065): 543.81 ± 3 kg/m3
mass density (318.11 K, 9775 kPa, x1 = 0.0049): 532.95 ± 2.2 kg/m3
mass density (318.11 K, 9801 kPa, x1 = 0.0065): 554.22 ± 2.5 kg/m3
mass density (318.11 K, 9898 kPa, x1 = 0.0065): 566.44 ± 2.4 kg/m3
mass density (318.11 K, 9974 kPa, x1 = 0.0049): 559.06 ± 2.1 kg/m3
mass density (318.11 K, 9975 kPa, x1 = 0.0065): 575.84 ± 2.3 kg/m3
mass density (318.11 K, 10075 kPa, x1 = 0.0065): 586.3 ± 2.1 kg/m3
mass density (318.11 K, 10181 kPa, x1 = 0.0065): 596.66 ± 2.1 kg/m3
mass density (318.11 K, 10293 kPa, x1 = 0.0065): 606.9 ± 2.1 kg/m3
mass density (318.11 K, 10405 kPa, x1 = 0.0065): 616.37 ± 2 kg/m3
mass density (318.11 K, 10523 kPa, x1 = 0.0049): 610.25 ± 1.6 kg/m3
mass density (318.11 K, 10629 kPa, x1 = 0.0065): 632.61 ± 1.8 kg/m3
mass density (318.11 K, 10763 kPa, x1 = 0.0093): 652.77 ± 1.1 kg/m3
mass density (318.11 K, 10830 kPa, x1 = 0.0065): 645.51 ± 1.6 kg/m3
mass density (318.11 K, 10978 kPa, x1 = 0.0093): 663.58 ± 1.1 kg/m3
mass density (318.11 K, 10980 kPa, x1 = 0.0049): 639.71 ± 1.4 kg/m3
mass density (318.11 K, 11049 kPa, x1 = 0.0065): 657.73 ± 1.4 kg/m3
mass density (318.11 K, 11516 kPa, x1 = 0.0065): 679.19 ± 1.2 kg/m3
mass density (318.11 K, 11989 kPa, x1 = 0.0093): 702.27 ± 0.99 kg/m3
mass density (318.11 K, 12007 kPa, x1 = 0.0049): 684.72 ± 1.1 kg/m3
mass density (318.11 K, 12072 kPa, x1 = 0.0065): 699.49 ± 1.1 kg/m3
mass density (318.11 K, 12537 kPa, x1 = 0.0065): 713.68 ± 1 kg/m3
mass density (318.11 K, 12998 kPa, x1 = 0.0093): 729.76 ± 0.84 kg/m3
mass density (318.11 K, 13017 kPa, x1 = 0.0065): 726.51 ± 0.89 kg/m3
mass density (318.11 K, 13024 kPa, x1 = 0.0049): 715.37 ± 0.89 kg/m3
mass density (318.11 K, 13986 kPa, x1 = 0.0049): 737.86 ± 0.78 kg/m3
mass density (318.11 K, 14066 kPa, x1 = 0.0093): 752.41 ± 0.76 kg/m3
mass density (318.11 K, 14069 kPa, x1 = 0.0065): 749.53 ± 0.8 kg/m3
mass density (318.11 K, 14967 kPa, x1 = 0.0093): 768.35 ± 0.7 kg/m3
mass density (318.11 K, 14970 kPa, x1 = 0.0049): 756.77 ± 0.72 kg/m3
mass density (318.11 K, 15010 kPa, x1 = 0.0065): 766.43 ± 0.75 kg/m3
mass density (318.11 K, 15879 kPa, x1 = 0.0065): 779.94 ± 0.7 kg/m3
mass density (318.11 K, 15977 kPa, x1 = 0.0049): 773.28 ± 0.68 kg/m3
